Measured values from patent US20170008888A1 (KYORIN PHARMACEUTICAL CO., LTD., priority 2014, published 2017).
Read-outs that look alike come from different tables or passages of the source.

Columns and labels:
Type in all cases: binding
ABL or ARG = assay: Probe-based (AX9989) kinase profiling in Jurkat lysate: ABL or ARG; conditions: for Kinase inhibition % at indicated screening concentration: ABL or ARG: screening concentration 1.0 μM
Protocol: (§1) In this example, potency of the compounds as ERK5 inhibitors was assessed, and the compounds were screened for activity against several kinases in Jurkat cells.
(§2) Jurkat cell pellets were resuspended in four volumes of lysis buffer (50 mM HEPES pH 7.5, 150 mM NaCl, 0.1% Triton-X-100, 1% v/v phosphatase, inhibitor cocktail II [EMD/Calbiochem, #524625]), sonicated using a tip, sonicator, and Dounce homogenized. Lysate was cleared by centrifugation, at 16,000 g for 15 min., was gel filtered (BioRad 10DG) and MnCl2 was then added to a final concentration of 20 mM before treatment with the test compound and probe labeling. […] All compound treatments were performed at room temperature.
(§3) Acyl phosphate ATP probe (AX9989) labeling reactions were performed at room temperature with a final probe concentration of 5 μM after a 15 min pre-incubation of lysate with a test compound. All reactions were performed in duplicate, using 445 μl/sample at 5 mg/ml. Probe-labeled lysates were denatured and reduced (6 M urea, 10 mM DTT, 65° C., 15 min), alkylated (40 mM iodoacetamide, 37° C., 30 min, and gel filtered (Sephadex G25) into 10 mM ammonium bicarbonate, 2 M urea, 5 mM methionine. The desalted protein mixture was digested with trypsin (0.015 mg/ml) for 1 hr at 37° C., and desthiobiotinylated peptides were captured using a […] high-capacity streptavidin resin (Thermo Scientific). Captured peptides were then washed extensively using 150 μl/wash with three different wash buffers: (A) 3 times with 1% triton, 0.5% tergitol, 1 mM EDTA in PBS; (B) 18 times with PBS; and (C) 8 times with HPLC grade water. Peptides were eluted from the streptavidin beads using two 35-μL washes of a 50% CH3CN/water mixture containing 0.1% TFA at room temperature.
(§4) Kinase active site peptides were identified and quantified using LC/MS. Percent inhibition was calculated as the normalized decrease in the ESI-MS fragment intensities of probe-labeled peptides in samples incubated with the test compound compared to those without.

AurB or AurC = assay: Probe-based (AX9989) kinase profiling in Jurkat lysate: AurB or AurC; conditions: for Kinase inhibition % at indicated screening concentration: AurB or AurC: screening concentration 1.0 μM
Protocol: as §1, §2, §3, §4

TAO2 = target: T1, TAO2 (Homo sapiens, UniProt Q9UL54); assay: Probe-based (AX9989) kinase profiling in Jurkat lysate: TAO2; conditions: for inhibition at 10 µM: screening concentration 10 μM
T1 construct: screened for activity against several kinases in Jurkat cells; endogenous in cells; host or cells: Jurkat cell lysate
T1 sequence (Q9UL54 1-1235): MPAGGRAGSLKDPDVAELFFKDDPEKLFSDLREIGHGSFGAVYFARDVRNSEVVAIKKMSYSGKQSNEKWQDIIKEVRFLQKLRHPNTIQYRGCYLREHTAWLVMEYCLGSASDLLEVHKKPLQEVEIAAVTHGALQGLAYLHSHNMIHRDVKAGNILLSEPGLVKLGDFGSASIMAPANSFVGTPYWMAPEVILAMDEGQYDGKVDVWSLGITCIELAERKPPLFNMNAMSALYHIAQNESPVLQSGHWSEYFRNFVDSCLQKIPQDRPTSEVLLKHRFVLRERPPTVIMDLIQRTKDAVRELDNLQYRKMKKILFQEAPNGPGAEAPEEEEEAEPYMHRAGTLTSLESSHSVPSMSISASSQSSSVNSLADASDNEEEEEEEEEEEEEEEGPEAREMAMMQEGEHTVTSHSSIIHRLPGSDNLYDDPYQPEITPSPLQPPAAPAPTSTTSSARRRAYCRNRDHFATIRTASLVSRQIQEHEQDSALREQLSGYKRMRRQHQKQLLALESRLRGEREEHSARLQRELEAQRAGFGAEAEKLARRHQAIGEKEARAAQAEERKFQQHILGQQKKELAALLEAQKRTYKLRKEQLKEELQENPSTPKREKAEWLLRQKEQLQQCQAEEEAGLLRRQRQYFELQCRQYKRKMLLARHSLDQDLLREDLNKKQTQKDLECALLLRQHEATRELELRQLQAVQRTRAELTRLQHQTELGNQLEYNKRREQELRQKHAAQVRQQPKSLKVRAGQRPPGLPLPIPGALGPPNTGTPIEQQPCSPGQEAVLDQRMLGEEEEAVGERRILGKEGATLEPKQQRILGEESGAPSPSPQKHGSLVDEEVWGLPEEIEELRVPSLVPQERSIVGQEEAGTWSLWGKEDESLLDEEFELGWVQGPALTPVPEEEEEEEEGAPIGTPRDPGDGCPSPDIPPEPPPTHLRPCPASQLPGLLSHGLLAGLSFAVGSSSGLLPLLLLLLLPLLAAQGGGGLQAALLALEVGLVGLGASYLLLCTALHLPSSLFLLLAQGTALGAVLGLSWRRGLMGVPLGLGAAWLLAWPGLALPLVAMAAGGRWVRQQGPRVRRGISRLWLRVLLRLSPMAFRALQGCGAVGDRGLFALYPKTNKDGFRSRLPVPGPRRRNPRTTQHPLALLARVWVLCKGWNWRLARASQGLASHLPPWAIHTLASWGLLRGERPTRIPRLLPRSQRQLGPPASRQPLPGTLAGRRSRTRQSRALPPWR
Protocol: as §1, §2, §3, §4

AurA = target: T2, AurA (Homo sapiens, UniProt O14965); assay: Probe-based (AX9989) kinase profiling in Jurkat lysate: AurA; conditions: for inhibition at 10 µM: screening concentration 10 μM
T2 construct: screened for activity against several kinases in Jurkat cells; endogenous in cells; host or cells: Jurkat cell lysate
T2 sequence (O14965 1-403): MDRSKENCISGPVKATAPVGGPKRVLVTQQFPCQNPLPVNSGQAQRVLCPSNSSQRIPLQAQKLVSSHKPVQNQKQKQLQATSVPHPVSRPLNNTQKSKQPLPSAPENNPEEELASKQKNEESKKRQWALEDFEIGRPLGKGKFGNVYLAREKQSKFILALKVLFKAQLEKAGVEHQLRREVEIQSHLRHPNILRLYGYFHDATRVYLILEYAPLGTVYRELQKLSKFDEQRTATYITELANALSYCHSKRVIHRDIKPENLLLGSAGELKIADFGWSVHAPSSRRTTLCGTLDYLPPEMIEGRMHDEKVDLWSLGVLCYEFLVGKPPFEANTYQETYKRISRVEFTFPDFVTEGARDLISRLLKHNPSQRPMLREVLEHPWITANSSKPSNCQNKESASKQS
Protocol: as §1, §2, §3, §4

JAK1 = target: T3, JAK1 (Homo sapiens, UniProt P23458); assay: Probe-based (AX9989) kinase profiling in Jurkat lysate: JAK1; conditions: for inhibition at 10 µM: screening concentration 10 μM
T3 construct: screened for activity against several kinases in Jurkat cells; endogenous in cells; host or cells: Jurkat cell lysate
T3 sequence (P23458 whole entry): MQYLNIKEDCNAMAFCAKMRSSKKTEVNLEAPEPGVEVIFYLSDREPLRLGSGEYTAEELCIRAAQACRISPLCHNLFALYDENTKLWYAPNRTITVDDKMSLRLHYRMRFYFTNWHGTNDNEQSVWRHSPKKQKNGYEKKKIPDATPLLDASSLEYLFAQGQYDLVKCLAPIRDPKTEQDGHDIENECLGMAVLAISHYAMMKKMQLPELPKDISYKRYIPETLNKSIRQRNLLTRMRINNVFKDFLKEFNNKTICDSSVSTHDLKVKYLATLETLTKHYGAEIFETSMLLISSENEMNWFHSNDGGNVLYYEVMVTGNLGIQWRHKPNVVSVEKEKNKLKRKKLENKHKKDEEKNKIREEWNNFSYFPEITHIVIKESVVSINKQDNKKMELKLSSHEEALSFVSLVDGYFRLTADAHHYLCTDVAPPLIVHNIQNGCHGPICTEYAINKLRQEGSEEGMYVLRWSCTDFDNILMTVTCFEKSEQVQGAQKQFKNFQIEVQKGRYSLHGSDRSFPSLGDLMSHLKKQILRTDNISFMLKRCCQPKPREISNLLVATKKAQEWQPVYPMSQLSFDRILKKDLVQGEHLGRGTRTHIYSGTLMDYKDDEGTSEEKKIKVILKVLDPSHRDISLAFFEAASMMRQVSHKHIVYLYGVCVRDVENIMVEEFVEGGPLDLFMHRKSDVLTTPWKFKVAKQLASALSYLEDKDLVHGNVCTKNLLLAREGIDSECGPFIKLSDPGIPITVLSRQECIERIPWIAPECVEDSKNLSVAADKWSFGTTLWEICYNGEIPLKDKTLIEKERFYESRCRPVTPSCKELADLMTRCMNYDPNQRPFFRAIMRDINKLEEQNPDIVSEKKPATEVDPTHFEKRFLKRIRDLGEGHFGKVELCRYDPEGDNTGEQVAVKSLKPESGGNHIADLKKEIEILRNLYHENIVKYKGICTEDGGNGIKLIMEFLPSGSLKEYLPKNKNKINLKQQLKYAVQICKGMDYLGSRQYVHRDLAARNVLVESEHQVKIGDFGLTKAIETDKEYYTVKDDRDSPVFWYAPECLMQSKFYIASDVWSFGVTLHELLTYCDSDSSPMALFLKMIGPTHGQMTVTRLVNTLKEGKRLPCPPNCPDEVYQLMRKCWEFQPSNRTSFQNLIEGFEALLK
Protocol: as §1, §2, §3, §4

AMPKa1 or AMPKa2 = assay: Probe-based (AX9989) kinase profiling in Jurkat lysate: AMPKa1 or AMPKa2; conditions: for Kinase inhibition % at indicated screening concentration: AMPKa1 or AMPKa2: screening concentration 1.0 μM
Protocol: as §1, §2, §3, §4

ERK5 = target: T4, ERK5 (Homo sapiens, UniProt Q13164); assay: Probe-based (AX9989 acyl phosphate ATP probe) kinase profiling in Jurkat lysate: ERK5; conditions: for IC50: Jurkat lysate; for inhibition at 10 µM: screening concentration 10 μM
T4 construct: screened for activity against several kinases in Jurkat cells; endogenous in cells; host or cells: Jurkat cell lysate
T4 sequence (Q13164 whole entry): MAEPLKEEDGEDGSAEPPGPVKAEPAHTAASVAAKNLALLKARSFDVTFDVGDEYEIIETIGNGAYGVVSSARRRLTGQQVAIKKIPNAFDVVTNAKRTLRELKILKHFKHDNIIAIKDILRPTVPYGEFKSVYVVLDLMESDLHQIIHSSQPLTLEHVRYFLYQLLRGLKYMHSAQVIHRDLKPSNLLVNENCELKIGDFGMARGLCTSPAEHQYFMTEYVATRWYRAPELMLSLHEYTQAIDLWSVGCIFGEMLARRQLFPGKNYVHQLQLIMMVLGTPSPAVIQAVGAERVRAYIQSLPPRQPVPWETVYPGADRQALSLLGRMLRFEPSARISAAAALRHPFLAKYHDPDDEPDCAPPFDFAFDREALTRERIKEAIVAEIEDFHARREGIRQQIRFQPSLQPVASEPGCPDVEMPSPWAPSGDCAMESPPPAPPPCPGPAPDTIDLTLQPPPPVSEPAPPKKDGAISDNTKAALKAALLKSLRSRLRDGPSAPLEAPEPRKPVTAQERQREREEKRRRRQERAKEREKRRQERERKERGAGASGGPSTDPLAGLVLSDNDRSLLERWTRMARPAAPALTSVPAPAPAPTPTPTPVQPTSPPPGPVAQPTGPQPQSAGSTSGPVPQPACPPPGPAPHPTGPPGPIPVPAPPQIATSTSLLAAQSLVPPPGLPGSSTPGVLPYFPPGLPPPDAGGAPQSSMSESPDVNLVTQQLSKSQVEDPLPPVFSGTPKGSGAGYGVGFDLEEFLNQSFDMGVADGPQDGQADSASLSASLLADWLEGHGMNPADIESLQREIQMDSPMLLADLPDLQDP
Protocol: as §1, §2, §3, §4
ERK5 IC50 values were calculated from the percent inhibition and the screening concentration.

ACK = target: T5, ACK (Homo sapiens, UniProt Q07912); assay: Probe-based (AX9989) kinase profiling in Jurkat lysate: ACK; conditions: for inhibition at 10 µM: screening concentration 10 μM
T5 construct: screened for activity against several kinases in Jurkat cells; endogenous in cells; host or cells: Jurkat cell lysate
T5 sequence (Q07912 whole entry): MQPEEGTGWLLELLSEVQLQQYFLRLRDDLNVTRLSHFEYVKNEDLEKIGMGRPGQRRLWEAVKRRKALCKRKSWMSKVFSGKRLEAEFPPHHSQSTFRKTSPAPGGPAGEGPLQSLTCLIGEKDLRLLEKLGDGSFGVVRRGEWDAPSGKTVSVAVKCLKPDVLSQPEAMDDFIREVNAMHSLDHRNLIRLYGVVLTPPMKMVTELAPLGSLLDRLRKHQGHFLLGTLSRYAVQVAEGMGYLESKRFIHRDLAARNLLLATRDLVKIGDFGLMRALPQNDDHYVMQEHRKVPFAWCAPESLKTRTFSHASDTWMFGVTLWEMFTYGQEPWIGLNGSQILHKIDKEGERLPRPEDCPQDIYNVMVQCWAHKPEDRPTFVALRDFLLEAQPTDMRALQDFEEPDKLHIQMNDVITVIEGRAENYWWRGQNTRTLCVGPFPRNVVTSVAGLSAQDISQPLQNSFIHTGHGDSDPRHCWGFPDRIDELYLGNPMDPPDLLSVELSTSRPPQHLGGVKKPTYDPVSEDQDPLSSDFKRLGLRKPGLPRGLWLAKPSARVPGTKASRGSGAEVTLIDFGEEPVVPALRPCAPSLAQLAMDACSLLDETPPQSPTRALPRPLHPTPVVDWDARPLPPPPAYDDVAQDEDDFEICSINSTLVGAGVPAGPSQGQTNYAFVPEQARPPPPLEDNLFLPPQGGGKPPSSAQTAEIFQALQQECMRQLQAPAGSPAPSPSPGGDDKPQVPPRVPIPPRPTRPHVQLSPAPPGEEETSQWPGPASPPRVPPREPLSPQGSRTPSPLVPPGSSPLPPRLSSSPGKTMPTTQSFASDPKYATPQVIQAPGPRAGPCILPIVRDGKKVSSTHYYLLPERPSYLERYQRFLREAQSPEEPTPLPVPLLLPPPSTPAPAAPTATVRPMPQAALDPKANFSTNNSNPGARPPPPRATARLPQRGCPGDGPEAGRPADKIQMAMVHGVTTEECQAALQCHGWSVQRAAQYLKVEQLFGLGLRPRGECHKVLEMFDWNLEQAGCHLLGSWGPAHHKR
Protocol: as §1, §2, §3, §4

[1] = screening concentration 1.0 μM, read-out: Kinase inhibition % at indicated screening concentration: TAO2
[2] = screening concentration 1.0 μM, read-out: Kinase inhibition % at indicated screening concentration: AurA
[3] = screening concentration 1.0 μM, read-out: Kinase inhibition % at indicated screening concentration: JAK1
[4] = calculated from percent inhibition of AX9989 labeling and the screening concentration
[5] = screening concentration 1.0 μM, read-out: Kinase inhibition % at indicated screening concentration: ERK5
[6] = screening concentration 1.0 μM, read-out: Kinase inhibition % at indicated screening concentration: ACK
[7] = read-out: TAO2 Inhibition % at indicated screening concentration
[8] = read-out: AurA Inhibition % at indicated screening concentration
[9] = read-out: JAK1 Inhibition % at indicated screening concentration
[10] = calculated from percent inhibition and screening concentration, AX9989 probe
[11] = read-out: ERK5 Inhibition % at indicated screening concentration
[12] = read-out: ACK Inhibition % at indicated screening concentration

Row | SMILES | Kinase inhibition % at indicated screening concentration: ABL or ARG (ABL or ARG) | Kinase inhibition % at indicated screening concentration: AurB or AurC (AurB or AurC) | inhibition at 1 µM (TAO2; [1]) [%] | inhibition at 1 µM (AurA; [2]) [%] | inhibition at 1 µM (JAK1; [3]) [%] | Kinase inhibition % at indicated screening concentration: AMPKa1 or AMPKa2 (AMPKa1 or AMPKa2) | IC50 (ERK5; [4]) [nM] | inhibition at 1 µM (ERK5; [5]) [%] | inhibition at 1 µM (ACK; [6]) [%] | IC50 (ERK5; [10]) [nM] | other results
1 | COc1ccc(C(=O)O)cc1Nc1cc2c(cn1)N(C)C(=O)c1ccccc1N2C [Compound 36] | E (E is ≦35%) | E (E is ≦35%) | ≤ 35 | ≤ 35 | ≤ 35 | E (E is ≦35%) | > 500 | 35 to 50 | ≤ 35 | – | –
2 | CCOc1ccccc1Nc1cc2c(cn1)N(C)C(=O)c1ccccc1N2C [Compound 13] | E (E is ≦35%) | E (E is ≦35%) | ≤ 35 | ≤ 35 | ≤ 35 | E (E is ≦35%) | > 500 | 50 to 75 | ≤ 35 | – | –
3 | CCOc1cc(C(=O)O)ccc1Nc1cc2c(cn1)N(C)S(=O)(=O)c1ccccc1N2C [Compound T1] | – | – | – | – | – | – | – | – | – | > 500 | ABL or ARG Inhibition % at indicated screening concentration (ABL or ARG; screening concentration 10 μM): E (E is ≦35%); AurB or AurC Inhibition % at indicated screening concentration (AurB or AurC; screening concentration 10 μM): E (E is ≦35%); inhibition at 10 µM (TAO2; [7]): ≤ 35%; inhibition at 10 µM (AurA; [8]): ≤ 35%; inhibition at 10 µM (JAK1; [9]): ≤ 35%; AMPKa1 or AMPKa2 Inhibition % at indicated screening concentration (AMPKa1 or AMPKa2; screening concentration 10 μM): E (E is ≦35%); inhibition at 10 µM (ERK5; [11]): ≤ 35%; inhibition at 10 µM (ACK; [12]): ≤ 35%
4 | CCOc1cc(C(=O)N2CC[C@@H](N(C)C)C2)ccc1Nc1cc2c(cn1)N(C)S(=O)(=O)c1ccccc1N2C [Compound T3] | – | – | – | – | – | – | – | – | – | > 500 | ABL or ARG Inhibition % at indicated screening concentration (ABL or ARG; screening concentration 10 μM): E (E is ≦35%); AurB or AurC Inhibition % at indicated screening concentration (AurB or AurC; screening concentration 10 μM): E (E is ≦35%); inhibition at 10 µM (TAO2; [7]): ≤ 35%; inhibition at 10 µM (AurA; [8]): ≤ 35%; inhibition at 10 µM (JAK1; [9]): ≤ 35%; AMPKa1 or AMPKa2 Inhibition % at indicated screening concentration (AMPKa1 or AMPKa2; screening concentration 10 μM): E (E is ≦35%); inhibition at 10 µM (ERK5; [11]): ≤ 35%; inhibition at 10 µM (ACK; [12]): ≤ 35%
5 | CN(C)CCn1cc(Nc2cc3c(cn2)N(C)C(=O)c2ccccc2N3C)cn1 [Compound 77] | E (E is ≦35%) | B (B is >75% to ≦90%) | 35 to 50 | 50 to 75 | ≤ 35 | E (E is ≦35%) | 101 to 500 | 75 to 90 | ≤ 35 | – | –
6 | Cc1ccccc1Nc1cc2c(cn1)N(C)C(=O)c1ccccc1N2C [Compound 58] | E (E is ≦35%) | E (E is ≦35%) | ≤ 35 | ≤ 35 | ≤ 35 | E (E is ≦35%) | > 500 | 50 to 75 | ≤ 35 | – | –
7 | CN1C(=O)c2ccccc2N(S(C)(=O)=O)c2cc(N[C@H]3CC[C@H](O)CC3)ncc21 [Compound T86, 3-(((1r,4r)-4-hydroxycyclohexyl)amino)-11-methyl-5-(methylsulfonyl)-5H-benzo[e]pyrido[3,4-b][1,4]diazepin-10(11H)-one] | – | – | – | – | – | – | – | – | – | > 500 | ABL or ARG Inhibition % at indicated screening concentration (ABL or ARG; screening concentration 1 μM): E (E is ≦35%); AurB or AurC Inhibition % at indicated screening concentration (AurB or AurC; screening concentration 1 μM): E (E is ≦35%); inhibition at 1 µM (TAO2; screening concentration 1 μM, read-out: TAO2 Inhibition % at indicated screening concentration): ≤ 35%; inhibition at 1 µM (AurA; screening concentration 1 μM, read-out: AurA Inhibition % at indicated screening concentration): ≤ 35%; inhibition at 1 µM (JAK1; screening concentration 1 μM, read-out: JAK1 Inhibition % at indicated screening concentration): ≤ 35%; AMPKa1 or AMPKa2 Inhibition % at indicated screening concentration (AMPKa1 or AMPKa2; screening concentration 1 μM): E (E is ≦35%); inhibition at 1 µM (ERK5; screening concentration 1 μM, read-out: ERK5 Inhibition % at indicated screening concentration): 35 to 50%; inhibition at 1 µM (ACK; screening concentration 1 μM, read-out: ACK Inhibition % at indicated screening concentration): ≤ 35%
